# From patent US20050197350A1, “Novel quinoline, tetrahydroquinazoline, and pyrimidine derivatives and methods of treatment related to the use thereof” (TAISHO PHARMACEUTICAL CO., LTD., priority 2003, published 2005)
# System: MCH receptors
# Experiment: MCH receptor activity class (method not given)
# Conditions: class by percent of control at 10^-7 M or IC50
row,Compound,class
1,"Cc1nn(-c2ccccc2)nc1C(=O)N[C@H]1CC[C@@H](Nc2nccc(N(C)C)n2)CC1 [compound 325, N-(cis-4-{[4-(dimethylamino)pyrimidin-2-yl]amino}cyclohexyl)-5-methyl-2-phenyl-2H-1,2,3-triazole-4-carboxamide]",1 (Class 1: The value of percent of control at 10^−7 M was less than 40% or the value of IC50 was less than 50 nM.)
2,"COc1ccc(Oc2ccc([N+](=O)[O-])cc2C(=O)N[C@H]2CC[C@@H](Nc3nccc(N(C)C)n3)CC2)cc1 [compound 326, N-(cis-4-{[4-(dimethylamino)pyrimidin-2-yl]amino}cyclohexyl)-2-(4-methoxyphenoxy)-5-nitrobenzamide]",1 (Class 1: The value of percent of control at 10^−7 M was less than 40% or the value of IC50 was less than 50 nM.)
3,CN(C)c1ccnc(N[C@H]2CC[C@@H](NC(=O)c3cccc4ccccc34)CC2)n1 [compound 327],3 (Class 3 The value of percent of control at 10^−7 M was more than 60% or the value of IC50 was more than 200 nM.)
4,CN(C)c1ccnc(N[C@H]2CC[C@@H](NC(=O)c3ccc4ccccc4c3)CC2)n1 [compound 328],3 (Class 3 The value of percent of control at 10^−7 M was more than 60% or the value of IC50 was more than 200 nM.)
5,CN(C)c1ccnc(N[C@H]2CC[C@@H](NC(=O)c3ccc([N+](=O)[O-])o3)CC2)n1 [compound 329],3 (Class 3 The value of percent of control at 10^−7 M was more than 60% or the value of IC50 was more than 200 nM.)
6,"CN(C)c1ccnc(N[C@H]2CC[C@@H](NC(=O)COc3ccccc3)CC2)n1 [compound 330, N-(cis-4-{[4-(dimethylamino)pyrimidin-2-yl]amino}cyclohexyl)-2-phenoxyacetamide]",2 (Class 2: The value of percent of control at 10^−7 M was from 40% to 60% or the value of IC′50 was from 50 nM to 200 nM.)
7,CN(C)c1ccnc(N[C@H]2CC[C@@H](NC(=O)COc3ccccc3[N+](=O)[O-])CC2)n1 [compound 331],3 (Class 3 The value of percent of control at 10^−7 M was more than 60% or the value of IC50 was more than 200 nM.)
8,CN(C)c1ccnc(N[C@H]2CC[C@@H](NC(=O)c3cnc4ccccc4n3)CC2)n1 [compound 332],1 (Class 1: The value of percent of control at 10^−7 M was less than 40% or the value of IC50 was less than 50 nM.)
9,COc1cc(C(=O)N[C@H]2CC[C@@H](Nc3nccc(N(C)C)n3)CC2)cc(OC)c1OC [compound 333],3 (Class 3 The value of percent of control at 10^−7 M was more than 60% or the value of IC50 was more than 200 nM.)
10,"CN(C)c1ccnc(N[C@H]2CC[C@@H](NC(=O)c3cccc(C(F)(F)F)c3)CC2)n1 [compound 334, N-(cis-4-{[4-(dimethylamino)pyrimidin-2-yl]amino}cyclohexyl)-3-(trifluoromethyl)benzamide]",2 (Class 2: The value of percent of control at 10^−7 M was from 40% to 60% or the value of IC′50 was from 50 nM to 200 nM.)
11,CN(C)c1ccnc(N[C@H]2CC[C@@H](NC(=O)c3ccc(C(F)(F)F)cc3)CC2)n1 [compound 335],3 (Class 3 The value of percent of control at 10^−7 M was more than 60% or the value of IC50 was more than 200 nM.)
12,CN(C)c1ccnc(N[C@H]2CC[C@@H](NC(=O)c3ccccc3OC(F)(F)F)CC2)n1 [compound 336],3 (Class 3 The value of percent of control at 10^−7 M was more than 60% or the value of IC50 was more than 200 nM.)
13,COc1cc(COC(=O)N[C@H]2CC[C@@H](Nc3nccc(N(C)C)n3)CC2)c([N+](=O)[O-])cc1OC [compound 337],3 (Class 3 The value of percent of control at 10^−7 M was more than 60% or the value of IC50 was more than 200 nM.)
14,CN(C)c1ccnc(N[C@H]2CC[C@@H](NC(=O)CCCOc3ccccc3)CC2)n1 [compound 338],3 (Class 3 The value of percent of control at 10^−7 M was more than 60% or the value of IC50 was more than 200 nM.)
15,COc1ccc(Br)c(C(=O)N[C@H]2CC[C@@H](Nc3nccc(N(C)C)n3)CC2)c1 [compound 339],3 (Class 3 The value of percent of control at 10^−7 M was more than 60% or the value of IC50 was more than 200 nM.)
16,"CN(C)c1ccnc(N[C@H]2CC[C@@H](NC(=O)COc3c(F)c(F)c(F)c(F)c3F)CC2)n1 [compound 340, N-(cis-4-{[4-(dimethylamino)pyrimidin-2-yl]amino}cyclohexyl)-2-(pentafluorophenoxy)acetamide]",2 (Class 2: The value of percent of control at 10^−7 M was from 40% to 60% or the value of IC′50 was from 50 nM to 200 nM.)
17,COc1ccc(CC(=O)N[C@H]2CC[C@@H](Nc3nccc(N(C)C)n3)CC2)cc1OC [compound 341],3 (Class 3 The value of percent of control at 10^−7 M was more than 60% or the value of IC50 was more than 200 nM.)
18,CN(C)c1ccnc(N[C@H]2CC[C@@H](NC(=O)c3ccc(F)c(F)c3F)CC2)n1 [compound 342],3 (Class 3 The value of percent of control at 10^−7 M was more than 60% or the value of IC50 was more than 200 nM.)
19,CN(C)c1ccnc(N[C@H]2CC[C@@H](NC(=O)C3CCCC3)CC2)n1 [compound 343],3 (Class 3 The value of percent of control at 10^−7 M was more than 60% or the value of IC50 was more than 200 nM.)
20,CN(C)c1ccnc(N[C@H]2CC[C@@H](NC(=O)c3ccc(F)cc3F)CC2)n1 [compound 344],3 (Class 3 The value of percent of control at 10^−7 M was more than 60% or the value of IC50 was more than 200 nM.)
21,CN(C)c1ccnc(N[C@H]2CC[C@@H](NC(=O)CCc3ccccc3)CC2)n1 [compound 345],3 (Class 3 The value of percent of control at 10^−7 M was more than 60% or the value of IC50 was more than 200 nM.)
22,CN(C)c1ccnc(N[C@H]2CC[C@@H](NC(=O)c3cc(F)c(F)c(F)c3F)CC2)n1 [compound 346],3 (Class 3 The value of percent of control at 10^−7 M was more than 60% or the value of IC50 was more than 200 nM.)
23,CCOc1ccc2ccccc2c1C(=O)N[C@H]1CC[C@@H](Nc2nccc(N(C)C)n2)CC1 [compound 347],3 (Class 3 The value of percent of control at 10^−7 M was more than 60% or the value of IC50 was more than 200 nM.)
24,CN(C)c1ccnc(N[C@H]2CC[C@@H](NC(=O)c3c(F)c(F)c(F)c(F)c3F)CC2)n1 [compound 348],3 (Class 3 The value of percent of control at 10^−7 M was more than 60% or the value of IC50 was more than 200 nM.)
25,CN(C)c1ccnc(N[C@H]2CC[C@@H](NC(=O)c3ccc(SC(F)(F)F)cc3)CC2)n1 [compound 349],3 (Class 3 The value of percent of control at 10^−7 M was more than 60% or the value of IC50 was more than 200 nM.)
26,CN(C)c1ccnc(N[C@H]2CC[C@@H](NC(=O)c3sc(Cl)c(Cl)c3Cl)CC2)n1 [compound 350],3 (Class 3 The value of percent of control at 10^−7 M was more than 60% or the value of IC50 was more than 200 nM.)
27,"CN(C)c1ccnc(N[C@H]2CC[C@@H](NC(=O)COc3cccc(Cl)c3)CC2)n1 [compound 351, 2-(3-chlorophenoxy)-N-(cis-4-{[4-(dimethylamino)pyrimidin-2-yl]amino}cyclohexyl)acetamide]",1 (Class 1: The value of percent of control at 10^−7 M was less than 40% or the value of IC50 was less than 50 nM.)
